Experimental data reported in patent US20240016807A1, “COMBINATION THERAPY FOR THE TREATMENT OF A LIVER DISEASE” (INVENTIVA, priority 2020, published 2024).

Legend:
Format in all cases: in vivo, C57BL6/J mice
[1] = test system: epididymal white adipose tissue (EWAT); experiment: Epididymal white adipose tissue weight in HFCC/CDX diet mouse model; conditions: 2 weeks treatment QD per os; lanifibranor 10 mg/kg, firsocostat 30 then 15 mg/kg
Protocol: It has been reported (Duparc T et al., Am J Physiol Gasterointest Liver Physiol, 2019, Vol. 317, n° 4, pages G508-G517) that mice fed with a high fat/high cholesterol/high cholic acid diet with 2% 2-hydroxypropyl beta-cyclodextrin in drinking water for 3 weeks rapidly develops liver complications such as steatosis, inflammation and fibrosis with concomitant increase in plasma ALT/AST levels. The benefit of a combination therapy comprising lanifibranor and firsocostat was assessed in this model. C57BL6/J mice were fed for 3 weeks with a 60% high fat/1.25% cholesterol/0.5% cholic acid diet with 2% 2-hydroxypropyl beta-cyclodextrin in drinking water (HFCC/CDX diet). After 1 week of diet, blood was collected (˜150 μL/ethylenediaminetetraacetic acid (EDTA)) in non-fasting conditions and plasma ALT and AST levels were measured. Mice were then randomized into 4 homogenous treatment groups (n=10 mice per group) according to their 1) ALT levels, 2) AST levels and 3) body weight. The four groups received then their treatment for the remaining 2 weeks on top of the HFCC/CDX diet as follows: • Group 1: vehicle 1+vehicle 2; • Group 2: lanifibranor+vehicle 2; • Group 3: vehicle 1+firsocostat; • Group 4: lanifibranor+firsocostat. All treatments were given QD per os. […]

[2] = Body weight follow-up in HFCC/CDX diet mouse model; conditions: for body weight: during treatment, lanifibranor 10 mg/kg QD per os, firsocostat 30 mg/kg QD per os in first week
Protocol: It has been reported (Duparc T et al., Am J Physiol Gasterointest Liver Physiol, 2019, Vol. 317, n° 4, pages G508-G517) that mice fed with a high fat/high cholesterol/high cholic acid diet with 2% 2-hydroxypropyl beta-cyclodextrin in drinking water for 3 weeks rapidly develops liver complications such as steatosis, inflammation and fibrosis with concomitant increase in plasma ALT/AST levels. The benefit of a combination therapy comprising lanifibranor and firsocostat was assessed in this model.
C57BL6/J mice were fed for 3 weeks with a 60% high fat/1.25% cholesterol/0.5% cholic acid diet with 2% 2-hydroxypropyl beta-cyclodextrin in drinking water (HFCC/CDX diet). After 1 week of diet, blood was collected (˜150 μL/ethylenediaminetetraacetic acid (EDTA)) in non-fasting conditions and plasma ALT and AST levels were measured. Mice were then randomized into 4 homogenous treatment groups (n=10 mice per group) according to their 1) ALT levels, 2) AST levels and 3) body weight. The four groups received then their treatment for the remaining 2 weeks on top of the HFCC/CDX diet as follows: • Group 1: vehicle 1+vehicle 2; • Group 2: lanifibranor+vehicle 2; • Group 3: vehicle 1+firsocostat; • Group 4: lanifibranor+firsocostat.
All treatments were given QD per os. Vehicle 1 stands for lanifibranor's vehicle (i.e. methyl cellulose/poloxamer), vehicle 2 stands for firsocostat's vehicle (i.e.
Tween®80/methylcellulose). Lanifibranor was given at 10 mg/kg for 2 weeks and firsocostat was given at 30 mg/kg for the first 6 days and then at 15 mg/kg for the last 8 days: due to the high loss of weight observed in the combination group, the dose of firsocostat was adapted to limit toxicity. At the end of the treatment period all the mice were weighted and 4-hour fasted prior to blood collection (maximal volume/EDTA). Plasma was isolated and stored at −80° C. Plasma leftover was used for evaluation of plasmatic triglycerides, cholesterols and free fatty acid. After blood collection, mice were sacrificed by cervical dislocation under isoflurane anaesthesia and exsanguinated with sterile saline.

[3] = test system: HFCC+CDX diet model (liver lipids); experiment: Liver lipids assay in HFCC/CDX diet mouse model; conditions: 2 weeks treatment QD per os; lanifibranor 10 mg/kg, firsocostat 30 then 15 mg/kg
Protocol: (§1) It has been reported (Duparc T et al., Am J Physiol Gasterointest Liver Physiol, 2019, Vol. 317, n° 4, pages G508-G517) that mice fed with a high fat/high cholesterol/high cholic acid diet with 2% 2-hydroxypropyl beta-cyclodextrin in drinking water for 3 weeks rapidly develops liver complications such as steatosis, inflammation and fibrosis with concomitant increase in plasma ALT/AST levels. The benefit of a combination therapy comprising lanifibranor and firsocostat was assessed in this model. C57BL6/J mice were fed for 3 weeks with a 60% high fat/1.25% cholesterol/0.5% cholic acid diet with 2% 2-hydroxypropyl beta-cyclodextrin in drinking water (HFCC/CDX diet). After 1 week of diet, blood was collected (˜150 μL/ethylenediaminetetraacetic acid (EDTA)) in non-fasting conditions and plasma ALT and AST levels were measured. Mice were then randomized into 4 homogenous treatment groups (n=10 mice per group) according to their 1) ALT levels, 2) AST levels and 3) body weight. The four groups received then their treatment for the remaining 2 weeks on top of the HFCC/CDX diet as follows: • Group 1: vehicle 1+vehicle 2; • Group 2: lanifibranor+vehicle 2; • Group 3: vehicle 1+firsocostat; • Group 4: lanifibranor+firsocostat. All treatments were given QD per os. Vehicle 1 stands for lanifibranor's vehicle (i.e. methyl cellulose/poloxamer), vehicle 2 stands for firsocostat's vehicle (i.e. Tween®80/methylcellulose). Lanifibranor was given at 10 mg/kg for 2 weeks and firsocostat was given at 30 mg/kg for the first 6 days and then at 15 mg/kg for the last 8 days: due to the high loss of weight observed in the combination group, the dose of firsocostat was adapted to limit toxicity. At the end of the treatment period all the mice were weighted and 4-hour fasted prior to blood collection (maximal volume/EDTA). Plasma was isolated and stored at −80° C. Plasma leftover was used for evaluation of plasmatic triglycerides, cholesterols and free fatty acid. After blood collection, mice were sacrificed by cervical dislocation under isoflurane anaesthesia and exsanguinated with sterile saline. The liver was collected and weighted then liver samples were dissected for histology analysis (H&E, Sirius Red staining, % Sirius Red labelling and NAFLD Activity Score (NAS)), liver lipids assay, hepatic gene expression of IL-1b, MCP-1 for inflammation, Col1 alpha1 and TGF-beta for fibrosis were analysed by qPCR.

[4] = test system: HFCC+CDX diet model (liver histology); experiment: Liver histology (steatosis, inflammation, fibrosis scoring, % Sirius Red) in HFCC/CDX diet mouse model; conditions: for histological fibrosis score: compared to the vehicle group (score of 1); for histological steatosis score / histological inflammation score: 3 being the maximum; for histological steatosis score: all vehicle animals scored 3; for histological inflammation score: all vehicle mice scored 3; for surface of fibrosis (collagen deposition within the liver): vehicle 0.14%; for total scoring including steatosis, inflammation and fibrosis scoring: vehicle 6.9
Protocol: as §1

[5] = test system: hepatic gene expression of IL-1b, MCP-1, Col1 alpha1 and TGF-beta; experiment: Hepatic gene expression by qPCR (inflammation and fibrosis genes) in HFCC/CDX diet mouse model; conditions: liver, vs vehicle, 2 weeks treatment
Protocol: as §1

SMILES | epididymal white adipose tissue (EWAT) weight [1] | body weight after firsocostat dose reduction ([2]; after firsocostat dose reduced from 30 mg/kg to 15 mg/kg) | body weight [2] | hepatic fatty acids levels, change vs vehicle [3] | hepatic total cholesterol, change vs vehicle [3] | hepatic triglycerides, change vs vehicle [3] | histological fibrosis score [4] | histological steatosis score [4] | histological inflammation score [4] | surface of fibrosis (collagen deposition within the liver) [4] | total scoring including steatosis, inflammation and fibrosis scoring [4] | hepatic IL-1beta expression [5] | hepatic MCP-1 expression [5] | hepatic TGF-beta1 expression [5] | hepatic collagen 1 alpha 1 expression [5]
COc1ccccc1[C@H](Cn1c(=O)n(C(C)(C)C(=O)O)c(=O)c2c(C)c(-c3ncco3)sc21)OC1CCOCC1 [firsocostat] | neither lanifibranor alone, firsocostat alone nor the combination of lanifibranor and firsocostat had an effect | normalized their body weight | induced a body weight loss in the first week of treatment | −16% | −9% | −14% | no effect | score of 2 in 7 animals but had no effect in 2 animals | 1 animals had a score of 3, 7 animals had a score of 2 and 1 animal had a score of 1 | 0.10% | 5.1 | decreased both IL-1beta and MCP-1 expressions but only the decrease in MCP-1 expression reached significance | decreased both IL-1beta and MCP-1 expressions but only the decrease in MCP-1 expression reached significance | statistically decreased | statistically decreased
O=C(O)CCCc1cc2cc(Cl)ccc2n1S(=O)(=O)c1ccc2ncsc2c1 [lanifibranor, 5-Chloro-1-[(6-benzothiazolyl)sulfonyl]-1H-indole-2-butanoic acid] | neither lanifibranor alone, firsocostat alone nor the combination of lanifibranor and firsocostat had an effect | – | minor body weight loss that was not significant | no effect | −18% | −7% | no effect | score of 2 for 8 animals and of 1 for 2 animals | 2 animals had a score of 3, 6 animals had a score of 2 and 2 animals had a score of 1 | 0.08% | 4.7 | statistically decreased | statistically decreased | statistically decreased | statistically decreased
